Reference: ChEMBL document CHEMBL4396947, “Synthesis and characterization of novel isoform-selective IP6K1 inhibitors” (Bioorg Med Chem Lett, 2019)

Key:
[1] = target: cAMP-dependent protein kinase catalytic subunit alpha (Homo sapiens) (UniProt P17612); test: Inhibition of recombinant full length human PRKACA assessed as residual activity at 10 uM using LRRASLG as substrate incubated for 40 mins in presence of [gamma-33P]ATP at Km concentration by radiometric assay relative to control
[2] = target: Calcium/calmodulin-dependent protein kinase type 1 (Homo sapiens) (UniProt Q14012); test: Inhibition of human full length recombinant CAMKI assessed as residual activity at 10 uM using KKLRRTLSFAEPG as substrate incubated for 40 mins in presence of [gamma-33P]ATP at Km concentration by radiometric assay relative to control
Calcium/calmodulin-dependent protein kinase type 1 (Homo sapiens), sequence (Q14012 whole entry, looked up): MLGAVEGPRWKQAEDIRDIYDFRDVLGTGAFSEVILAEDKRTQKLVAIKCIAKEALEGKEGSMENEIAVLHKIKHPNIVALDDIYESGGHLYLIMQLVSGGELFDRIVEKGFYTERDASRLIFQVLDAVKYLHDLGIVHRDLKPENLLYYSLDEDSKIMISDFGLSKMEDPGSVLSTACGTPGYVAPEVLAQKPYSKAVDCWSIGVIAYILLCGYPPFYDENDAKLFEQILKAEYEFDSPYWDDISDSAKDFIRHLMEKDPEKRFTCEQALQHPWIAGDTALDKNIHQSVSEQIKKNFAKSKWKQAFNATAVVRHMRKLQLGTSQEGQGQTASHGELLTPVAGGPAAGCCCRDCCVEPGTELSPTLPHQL

Homo sapiens = organism: Homo sapiens; test: Inhibition of recombinant human PAK2 L150F/P225T/A339 deletion/V383I mutant (3 to end residues) assessed as residual activity at 10 uM using KEAKEKRQEQIAKR as substrate incubated for 40 mins in presence of [gamma-33P]ATP at Km concentration by radiometric assay relative to control
[3] = target: Serine/threonine-protein kinase pim-1 (Homo sapiens) (UniProt P11309); test: Inhibition of recombinant full length human PIM1 assessed as residual activity at 10 uM using KKRNRTLTV as substrate incubated for 40 mins in presence of [gamma-33P]ATP at Km concentration by radiometric assay relative to control
Serine/threonine-protein kinase pim-1 (Homo sapiens), sequence (P11309 whole entry, looked up): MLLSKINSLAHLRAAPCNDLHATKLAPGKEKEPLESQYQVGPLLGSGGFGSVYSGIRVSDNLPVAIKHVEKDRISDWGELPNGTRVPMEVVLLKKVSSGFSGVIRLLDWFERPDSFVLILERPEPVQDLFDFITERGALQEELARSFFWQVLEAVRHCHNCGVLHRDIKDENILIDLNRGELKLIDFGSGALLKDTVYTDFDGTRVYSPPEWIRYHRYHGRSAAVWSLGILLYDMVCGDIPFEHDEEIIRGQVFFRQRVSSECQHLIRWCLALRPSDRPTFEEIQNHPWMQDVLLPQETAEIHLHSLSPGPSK

[4] = target: MAP kinase-interacting serine/threonine-protein kinase 2 (Homo sapiens) (UniProt Q9HBH9); test: Inhibition of full length recombinant human MNK2 assessed as residual activity at 10 uM using myelin basic protein as substrate incubated for 40 mins in presence of [gamma-33P]ATP at Km concentration by radiometric assay relative to control
MAP kinase-interacting serine/threonine-protein kinase 2 (Homo sapiens), sequence (Q9HBH9 whole entry, looked up): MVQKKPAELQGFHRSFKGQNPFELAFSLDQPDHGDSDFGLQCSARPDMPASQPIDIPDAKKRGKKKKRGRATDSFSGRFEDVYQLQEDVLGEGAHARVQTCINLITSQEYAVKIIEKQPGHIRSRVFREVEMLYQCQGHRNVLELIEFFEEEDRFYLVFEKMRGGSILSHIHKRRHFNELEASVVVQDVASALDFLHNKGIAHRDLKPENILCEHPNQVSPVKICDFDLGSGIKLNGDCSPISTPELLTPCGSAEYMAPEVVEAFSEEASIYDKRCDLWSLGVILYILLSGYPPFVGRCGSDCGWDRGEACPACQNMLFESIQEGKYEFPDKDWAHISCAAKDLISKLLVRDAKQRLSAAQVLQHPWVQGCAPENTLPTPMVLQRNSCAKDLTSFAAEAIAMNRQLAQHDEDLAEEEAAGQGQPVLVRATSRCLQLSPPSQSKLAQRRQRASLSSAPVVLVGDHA

COc1ccc2c(CCNc3nc(NCc4ccc(=O)[nH]c4)c4nc[nH]c4n3)c[nH]c2c1
Activity [1]: 77% | Activity [2]: 77% | Activity (Homo sapiens): 98% | Activity [3]: 82% | Activity [4]: 76%
